Results as given in patent publication US20120130146A1, “CONTINUOUS ADMINISTRATION OF CILENGITIDE IN CANCER TREATMENTS” (Merck Patent GmbH, priority 2009, published 2012).
“Also recorded” adds a separate entry of the source.

How the values were obtained:
[1] = test system: human umbilical vein endothelial cells (HUVECs); test: Growth (Alamar Blue) assay on HUVEC, Example 5; type: cell-based; conditions: agent alone
Excerpt: The methods established and described in detail previously (Goodman and Hahn a; b) were used to measure the effect of combinations of integrin inhibitors and chemotherapeutics on carcinoma cell and human endothelial cell proliferation.
Points were run in duplicate or in triplicate. Reagent blanks, containing media plus Alamar Blue without cells, were run on each plate. Blank values were subtracted from test values and were routinely 5-10% of uninhibited control values.
5.5 Methods of Evaluation and Statistics Chemotherapeutic agents and αv-integrin blockers were serially diluted alone or together (combination therapy). In some assays the chemotherapeutic agent was serially diluted alone or in combination with of alpha-v integrin blocker. Growth inhibition curves were plotted and a shift of the combination therapy curve to lower concentrations in relation to the single agent curves was interpreted as an additional effect, produced by combination versus monotherapy.
The αv-integrin competitive inhibitor Cilengitide (EMD 121974) was tested alone and in combination with vinorelbine in a serum growth stimulation assay using human carcinoma cells or human umbilical vein endothelial cells (HUVECs). In these assays cells are cultured in serum, or in an endothelial growth stimulation medium (Goodman & Hahn).

various brain tumors = conditions: cited from earlier work
[2] = test system: recurrent glioblastoma (GBM); test: Phase IIa trial of cilengitide single agent therapy in patients with recurrent glioblastoma; type: in vivo, human
Procedure: Background: The present phase IIa study was designed to evaluate the safety, toxicity, and clinical activity of the cyclic RGD pentapeptide cilengitide((=cyclo-(Arg-Gly-Asp-DPhe-NMe-Val)), an inhibitor of integrins avβ3 and avβ5, as a single agent at doses of 500 and 2000 mg in patients (pts) with recurrent glioblastoma (GBM).
Methods: in this multicenter, open-label, randomized, uncontrolled study, pts with GBM and measurable disease that had relapsed after previous therapy with temozolomide and radiotherapy were randomized to receive cilengitide at doses of either 500 mg or 2000 mg i.v., 2×/week, until progression. Histopathology diagnosis and MRI imaging were subject to independent blinded review. The primary endpoint was Progression Free Survival (PFS) at 6 months (mths). Secondary endpoints included response, survival, time to disease progression, safety, tolerability and pharmacokinetics.

CC(C)[C@H]1C(=O)N[C@@H](CCCN=C(N)N)C(=O)NCC(=O)N[C@@H](CC(=O)O)C(=O)N[C@H](Cc2ccccc2)C(=O)N1C [Cilengitide, cyclo-(Arg-Gly-Asp-DPhe-NMeVal)]
IC50 [1]: 700 nM | MTD in humans (various brain tumors; human, in vivo): no known MTD | tolerability (various brain tumors; human, in vivo): very well tolerated | response in GBM patients (various brain tumors; some of the GBM patients): indication of response | median Overall Survival (mOS) ([2]; 500 mg arm): 6.5 mths | pts who received 12 or more cycles of therapy ([2]; 1 cycle = 4 weeks, both dose arms): 12.3% | median Overall Survival (mOS) ([2]; 2000 mg arm): 9.9 mths | PFS rate at 6 mths ([2]; 500 or 2000 mg i.v. 2x/week, all 81 pts): 16.1% | Treatment related NCI CTC grade 3 adverse events ([2]; at 500 mg, in 1 patient each): elevated liver enzymes; also recorded: arthralgia/myalgia | Treatment related NCI CTC grade 3 adverse events ([2]; at 2000 mg, in 1 patient): weight increase/edema | pts still progression-free and on treatment ([2]; at the time the abstract was issued): 7.4% | grade 4 therapy related AEs ([2]; both dose arms): No grade 4 therapy related AEs | single agent activity in recurrent glioblastoma ([2]; human, in vivo): advantagous single agent activity | cerebral hemorrhage ([2]; possibly related either to the drug or to the disease): One CTC grade 2 cerebral hemorrhage | tolerability ([2]; single agent therapy at two dose levels): tolerated well
